Measured values published in ChEMBL document CHEMBL1201861, “Genomics of Drug Sensitity in Cancer screening data, Wellcome Trust Sanger Institute”.
pIC50: −log10 of the molar value.

Tests used:
Assay in all cases: cells
MMAC-SF = assay type: functional, cell-based; conditions: Homo sapiens;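 further: growth inhibition of human MMAC-SF cells, read out with a cell viability assay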
ES8 = assay type: functional, cell-based, Homo sapiens; conditions: Homo sapiens, ES8;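 further: growth inhibition of human ES8 cells, read out with a cell viability assay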
Description: SANGER: Inhibition of human ES8 cell growth in a cell viability assay.

NMC-G1 = assay type: functional, cell-based, Homo sapiens; conditions: Homo sapiens, NMC-G1;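 further: growth inhibition of the NMC-G1 cell line, measured with a cell viability read-out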
Description: SANGER: Inhibition of human NMC-G1 cell growth in a cell viability assay.

ES6 = assay type: functional, cell-based; conditions: Homo sapiens;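 further: growth inhibition of human ES6 cells, read out with a cell viability assay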
Description: SANGER: Inhibition of human ES6 cell growth in a cell viability assay.

EW-1 = assay type: functional, cell-based, Homo sapiens; conditions: Homo sapiens, EW-1
Description: SANGER: Inhibition of human EW-1 cell growth in a cell viability assay.

SK-UT-1 = assay type: functional, cell-based, Homo sapiens; conditions: Homo sapiens, SK-UT-1;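 further: growth inhibition of SK-UT-1 cells, measured by a cell viability assay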
Description: SANGER: Inhibition of human SK-UT-1 cell growth in a cell viability assay.

HCC2157 = assay type: functional, cell-based, Homo sapiens; conditions: Homo sapiens, HCC2157;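 further: growth inhibition of the cancer cell line, read out as cell viability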
Description: SANGER: Inhibition of human HCC2157 cell growth in a cell viability assay.

OMC-1 = assay type: functional, cell-based, Homo sapiens; conditions: Homo sapiens, OMC-1;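 further: growth inhibition of the OMC-1 cell line, measured by a cell viability assay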
Description: SANGER: Inhibition of human OMC-1 cell growth in a cell viability assay.

GR-ST = assay type: functional, cell-based, Homo sapiens; conditions: Homo sapiens, GR-ST
Description: SANGER: Inhibition of human GR-ST cell growth in a cell viability assay.

HH = assay type: functional, cell-based, Homo sapiens; conditions: Homo sapiens, HH
Description: SANGER: Inhibition of human HH cell growth in a cell viability assay.

LB771-HNC = assay type: functional, cell-based; conditions: Homo sapiens;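 further: growth inhibition of LB771-HNC human cells, read out with a cell viability assay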
LAN-6 = assay type: functional, cell-based, Homo sapiens; conditions: Homo sapiens, LAN-6;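 further: growth inhibition of LAN-6 cells, determined with a cell viability assay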
Description: SANGER: Inhibition of human LAN-6 cell growth in a cell viability assay.

ALL-PO = assay type: functional, cell-based, Homo sapiens; conditions: Homo sapiens, ALL-PO;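 further: growth inhibition of ALL-PO cells, read out by a cell viability assay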
Description: SANGER: Inhibition of human ALL-PO cell growth in a cell viability assay.

SF-268 = assay type: functional, cell-based, Homo sapiens; conditions: Homo sapiens, SF-268;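 further: growth inhibition of SF-268 cells determined with a cell viability assay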
Description: SANGER: Inhibition of human SF268 cell growth in a cell viability assay.

COLO-824 = assay type: functional, cell-based, Homo sapiens; conditions: Homo sapiens, COLO-824
Description: SANGER: Inhibition of human COLO-824 cell growth in a cell viability assay.

A388 = assay type: functional, cell-based; conditions: Homo sapiens;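 further: growth inhibition of human A388 cells, read out with a cell viability assay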
Description: SANGER: Inhibition of human A388 cell growth in a cell viability assay.

D-263MG = assay type: functional, cell-based, Homo sapiens; conditions: Homo sapiens, D-263MG
Description: SANGER: Inhibition of human D-263MG cell growth in a cell viability assay.

SBC-1 = assay type: functional, cell-based, Homo sapiens; conditions: Homo sapiens, SBC-1;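 further: cell viability assay measuring growth inhibition of the SBC-1 cell line, IC50 being the concentration that halves growth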
Description: SANGER: Inhibition of human SBC-1 cell growth in a cell viability assay.

KARPAS-45 = assay type: functional, cell-based, Homo sapiens; conditions: Homo sapiens, KARPAS-45;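 further: inhibition of cell line growth, read out through a viability assay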
Description: SANGER: Inhibition of human KARPAS-45 cell growth in a cell viability assay.

NCI-H1581 = assay type: functional, cell-based, Homo sapiens; conditions: Homo sapiens, NCI-H1581;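 further: cell growth inhibition read out by a viability assay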
Description: SANGER: Inhibition of human NCI-H1581 cell growth in a cell viability assay.

MOLT-16 = assay type: functional, cell-based, Homo sapiens; conditions: Homo sapiens, MOLT-16;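 further: growth inhibition of human MOLT-16 cells, read out with a cell viability assay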
Description: SANGER: Inhibition of human MOLT-16 cell growth in a cell viability assay.

ES7 = assay type: functional, cell-based, Homo sapiens; conditions: Homo sapiens, ES7;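 further: growth inhibition of cultured human ES7 cells, read out as cell viability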
Description: SANGER: Inhibition of human ES7 cell growth in a cell viability assay.

NCI-H82 = assay type: functional, cell-based, Homo sapiens; conditions: Homo sapiens, NCI-H82;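 further: growth inhibition of NCI-H82 cells, measured with a cell viability readout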
Description: SANGER: Inhibition of human NCI-H82 cell growth in a cell viability assay.

NCI-H1155 = assay type: functional, cell-based, Homo sapiens; conditions: Homo sapiens, NCI-H1155;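 further: cell growth inhibition measured by a viability assay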
Description: SANGER: Inhibition of human NCI-H1155 cell growth in a cell viability assay.

COR-L88 = assay type: functional, cell-based, Homo sapiens; conditions: Homo sapiens, COR-L88;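 further: growth inhibition of COR-L88 cells, read out with a cell viability assay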
Description: SANGER: Inhibition of human COR-L88 cell growth in a cell viability assay.

LS-1034 = assay type: functional, cell-based, Homo sapiens; conditions: Homo sapiens, LS-1034
Description: SANGER: Inhibition of human LS-1034 cell growth in a cell viability assay.

MZ2-MEL = assay type: functional, cell-based, Homo sapiens; conditions: Homo sapiens, MZ2-MEL;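 further: growth inhibition of MZ2-MEL cells read out with a cell viability assay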
Description: SANGER: Inhibition of human MZ2-MEL cell growth in a cell viability assay.

CAS-1 = assay type: functional, cell-based, Homo sapiens; conditions: Homo sapiens, CAS-1;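 further: growth inhibition of CAS-1 cells, measured with a cell viability assay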
HCC1187 = assay type: functional, cell-based, Homo sapiens; conditions: Homo sapiens, HCC1187;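 further: growth inhibition of HCC1187 cells, read out with a cell viability assay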
HCE-T = assay type: functional, cell-based, Homo sapiens; conditions: Homo sapiens, HCE-T;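 further: cell viability assay read-out, reporting inhibition of HCE-T cell growth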
Description: SANGER: Inhibition of human HCE-T cell growth in a cell viability assay.

D-502MG = assay type: functional, cell-based, Homo sapiens; conditions: Homo sapiens, D-502MG
Description: SANGER: Inhibition of human D-502MG cell growth in a cell viability assay.

NB69 = assay type: functional, cell-based, Homo sapiens; conditions: Homo sapiens, NB69;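 further: growth inhibition of NB69 cells, determined by a cell viability assay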
Description: SANGER: Inhibition of human NB69 cell growth in a cell viability assay.

EW-16 = assay type: functional, cell-based, Homo sapiens; conditions: Homo sapiens, EW-16;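 further: growth inhibition of human EW-16 cells, read out as cell viability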
Description: SANGER: Inhibition of human EW-16 cell growth in a cell viability assay.

DJM-1 = assay type: functional, cell-based, Homo sapiens; conditions: Homo sapiens, DJM-1;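 further: growth inhibition of human DJM-1 cells, read out by a cell viability assay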
Ramos-2G6-4C10 = assay type: functional, cell-based, Homo sapiens; conditions: Homo sapiens, Ramos-2G6-4C10;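 further: growth inhibition of the cell line, measured by a cell viability read-out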
Description: SANGER: Inhibition of human Ramos-2G6-4C10 cell growth in a cell viability assay.

NCI-H720 = assay type: functional, cell-based, Homo sapiens; conditions: Homo sapiens, NCI-H720;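 further: growth inhibition of human NCI-H720 cells determined by a cell viability assay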
Description: SANGER: Inhibition of human NCI-H720 cell growth in a cell viability assay.

NCI-H1648 = assay type: functional, cell-based, Homo sapiens; conditions: Homo sapiens, NCI-H1648;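 further: cell viability assay measuring inhibition of NCI-H1648 cell growth, from the Sanger screening data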
Description: SANGER: Inhibition of human NCI-H1648 cell growth in a cell viability assay.

P30-OHK = assay type: functional, cell-based, Homo sapiens; conditions: Homo sapiens, P30-OHK;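 further: growth inhibition of the P30-OHK cell line, read out with a cell viability assay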
Description: SANGER: Inhibition of human P30-OHK cell growth in a cell viability assay.

K5 = assay type: functional, cell-based, Homo sapiens; conditions: Homo sapiens, K5
Description: SANGER: Inhibition of human K5 cell growth in a cell viability assay.

TE-9 = assay type: functional, cell-based, Homo sapiens; conditions: Homo sapiens, TE-9;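 further: cell growth inhibition, measured with a cell viability readout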
Description: SANGER: Inhibition of human TE-9 cell growth in a cell viability assay.

LB996-RCC = assay type: functional, cell-based, Homo sapiens; conditions: Homo sapiens, LB996-RCC
Description: SANGER: Inhibition of human LB996-RCC cell growth in a cell viability assay.

TE-6 = assay type: functional, cell-based, Homo sapiens; conditions: Homo sapiens, TE-6;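 further: growth inhibition of TE-6 cells, read out with a cell viability assay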
Description: SANGER: Inhibition of human TE-6 cell growth in a cell viability assay.

SW872 = assay type: functional, cell-based, Homo sapiens; conditions: Homo sapiens, SW872;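 further: growth inhibition of SW872 cells, read out by a viability assay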
Description: SANGER: Inhibition of human SW872 cell growth in a cell viability assay.

NCI-H1304 = assay type: functional, cell-based, Homo sapiens; conditions: Homo sapiens, NCI-H1304;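 further: growth inhibition of the cancer cell line, measured in a cell viability assay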
Description: SANGER: Inhibition of human NCI-H1304 cell growth in a cell viability assay.

ML-2 = assay type: functional, cell-based, Homo sapiens; conditions: Homo sapiens, ML-2;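 further: growth inhibition of ML-2 cells, measured with a cell viability readout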
Description: SANGER: Inhibition of human ML-2 cell growth in a cell viability assay.

NB5 = assay type: functional, cell-based, Homo sapiens; conditions: Homo sapiens, NB5;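 further: growth inhibition of NB5 cells, read out as cell viability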
Description: SANGER: Inhibition of human NB5 cell growth in a cell viability assay.

SK-N-FI = assay type: functional, cell-based, Homo sapiens; conditions: Homo sapiens, SK-N-FI;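 further: cell viability assay measuring growth inhibition of human SK-N-FI cells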
Description: SANGER: Inhibition of human SK-N-FI cell growth in a cell viability assay.

RPMI-8226 = assay type: functional, cell-based, Homo sapiens; conditions: Homo sapiens, RPMI-8226
Description: SANGER: Inhibition of human RPMI-8226 cell growth in a cell viability assay.

LNCaP-Clone-FGC = assay type: functional, cell-based, Homo sapiens; conditions: Homo sapiens, LNCaP-Clone-FGC
Description: SANGER: Inhibition of human LNCaP-Clone-FGC cell growth in a cell viability assay.

SCH = assay type: functional, cell-based, Homo sapiens; conditions: Homo sapiens, SCH;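 further: growth inhibition of human SCH cells, read out in a cell viability assay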
Description: SANGER: Inhibition of human SCH cell growth in a cell viability assay.

Structure (SMILES): Cc1ccc(NC(=O)c2ccc(CN3CCN(C)CC3)cc2)cc1Nc1nccc(-c2cccnc2)n1 [IMATINIB]
- pIC50 (MMAC-SF): < 5.70
- pIC50 (ES8): < 5.70
- pIC50 (NMC-G1): < 5.70
- pIC50 (ES6): < 5.70
- pIC50 (EW-1): < 5.70
- pIC50 (SK-UT-1): < 5.70
- pIC50 (HCC2157): < 5.70
- pIC50 (OMC-1): < 5.70
- pIC50 (GR-ST): < 5.70
- pIC50 (HH): < 5.70
- pIC50 (LB771-HNC): < 5.70
- pIC50 (LAN-6): < 5.70
- pIC50 (ALL-PO): < 5.70
- pIC50 (SF-268): < 5.70
- pIC50 (COLO-824): < 5.70
- pIC50 (A388): < 5.70
- pIC50 (D-263MG): < 5.70
- pIC50 (SBC-1): < 5.70
- pIC50 (KARPAS-45): < 5.70
- pIC50 (NCI-H1581): < 5.70
- pIC50 (MOLT-16): < 5.70
- pIC50 (ES7): < 5.70
- pIC50 (NCI-H82): < 5.70
- pIC50 (NCI-H1155): < 5.70
- pIC50 (COR-L88): < 5.70
- pIC50 (LS-1034): < 5.70
- pIC50 (MZ2-MEL): < 5.70
- pIC50 (CAS-1): < 5.70
- pIC50 (HCC1187): < 5.70
- pIC50 (HCE-T): < 5.70
- pIC50 (D-502MG): < 5.70
- pIC50 (NB69): < 5.70
- pIC50 (EW-16): < 5.70
- pIC50 (DJM-1): < 5.70
- pIC50 (Ramos-2G6-4C10): < 5.70
- pIC50 (NCI-H720): < 5.70
- pIC50 (NCI-H1648): < 5.70
- pIC50 (P30-OHK): < 5.70
- pIC50 (K5): < 5.70
- pIC50 (TE-9): < 5.70
- pIC50 (LB996-RCC): < 5.70
- pIC50 (TE-6): < 5.70
- pIC50 (SW872): < 5.70
- pIC50 (NCI-H1304): < 5.70
- pIC50 (ML-2): < 5.70
- pIC50 (NB5): < 5.70
- pIC50 (SK-N-FI): < 5.70
- pIC50 (RPMI-8226): < 5.70

Structure (SMILES): CN(C)CCOc1ccc(-c2nc(-c3ccncc3)c(-c3ccc4c(c3)CC/C4=N\O)[nH]2)cc1 [SB590885]
- pIC50 (ES8): < 5.30
- pIC50 (NMC-G1): < 5.30
- pIC50 (ES6): < 5.30
- pIC50 (EW-1): < 5.30
- pIC50 (HCC2157): < 5.30
- pIC50 (OMC-1): < 5.30
- pIC50 (GR-ST): < 5.30
- pIC50 (HH): < 5.30
- pIC50 (LB771-HNC): < 5.30
- pIC50 (LAN-6): < 5.30
- pIC50 (ALL-PO): < 5.30
- pIC50 (SF-268): < 5.30
- pIC50 (COLO-824): < 5.30
- pIC50 (LNCaP-Clone-FGC): < 5.30
- pIC50 (A388): < 5.30
- pIC50 (D-263MG): < 5.30
- pIC50 (SBC-1): < 5.30
- pIC50 (KARPAS-45): 5.41
- pIC50 (NCI-H1581): < 5.30
- pIC50 (MOLT-16): < 5.30
- pIC50 (ES7): < 5.30
- pIC50 (NCI-H82): < 5.30
- pIC50 (SCH): < 5.30
- pIC50 (NCI-H1155): < 5.30
- pIC50 (COR-L88): < 5.30
- pIC50 (LS-1034): < 5.30
- pIC50 (MZ2-MEL): < 5.30
- pIC50 (CAS-1): < 5.30
- pIC50 (HCC1187): < 5.30
- pIC50 (HCE-T): < 5.30
- pIC50 (D-502MG): < 5.30
- pIC50 (NB69): < 5.30
- pIC50 (EW-16): < 5.30
- pIC50 (DJM-1): < 5.30
- pIC50 (Ramos-2G6-4C10): < 5.30
- pIC50 (NCI-H720): < 5.30
- pIC50 (P30-OHK): < 5.30
- pIC50 (TE-9): < 5.30
- pIC50 (LB996-RCC): < 5.30
- pIC50 (TE-6): < 5.30
- pIC50 (SW872): < 5.30
- pIC50 (NCI-H1304): < 5.30
- pIC50 (ML-2): < 5.30
- pIC50 (NB5): < 5.30
- pIC50 (SK-N-FI): < 5.30
- pIC50 (RPMI-8226): < 5.30
